Among the data in PubChem BioAssay (NCI) are GI50 and TGI values, retold here.

Some test systems named below: COLO 205 colon; HCC-2998 colon; KM12 colon; MCF7 breast; NCI-H522 lung; OVCAR-8 ovarian; RPMI-8226 leukemia; SK-OV-3 ovarian; T-47D breast; UO-31 renal.
Holding throughout (assay): NCI-60 cell line screen, 48 h

Molecules are shown by their SMILES. “And” between values parts separate entries of the source, which are not always exact repeats. Equal values may be shown once.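 Interpolation was linear, between the two tested concentrations surrounding the appropriate level; five concentrations were tested over 48 hours in 96-well plates. GI50 marks 50% less growth. TGI denotes the concentration required for complete inhibition of growth.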

On to `CC(=O)/C(=C\c1c(-c2ccccc2)[nH]c2ccccc12)S(=O)(=O)c1ccccc1`, for which the GI50 is 1540 nM in the test with COLO 205 colon; 1380 nM in the test on HCC-2998 colon; 1010 nM in the test on KM12 colon; 903 nM in the test on MCF7 breast; 1170 nM in the test on NCI-H522 lung; 2510 nM in the test with OVCAR-8 ovarian. The GI50 in the test on RPMI-8226 leukemia is 2230 nM; in the test with SK-OV-3 ovarian it was 2810 nM; in the test on T-47D breast it was 1260 nM; with UO-31 renal, 1580 nM. Also, the TGI was 5620 nM in the test on COLO 205 colon; 2780 nM with HCC-2998 colon; 2650 nM in the test with KM12 colon; 9360 nM in the test with MCF7 breast; 4350 nM in the test on NCI-H522 lung; 9890 nM with OVCAR-8 ovarian. The TGI in the test with RPMI-8226 leukemia came out at 7140 nM; in the test on SK-OV-3 ovarian, 19400 nM; with T-47D breast, 7030 nM; with UO-31 renal it was 3540 nM.
With `Cc1cc(O)cc(C)c1/C=C/c1cncc(C(=O)OC(C)(C)C)c1`, the GI50 in the test on COLO 205 colon is greater than 25000 nM; with HCC-2998 colon it was greater than 25000 nM; in the test on KM12 colon, 15200 nM; in the test with MCF7 breast, 11800 nM; in the test with NCI-H522 lung, 7950 nM; in the test with OVCAR-8 ovarian, 18000 nM. Besides, the GI50 is greater than 22400 nM in the test with RPMI-8226 leukemia, 16100 nM in the test with SK-OV-3 ovarian, 10700 nM in the test on T-47D breast and 8340 nM in the test on UO-31 renal. Also, the TGI in the test on COLO 205 colon was greater than 25000 nM; in the test on HCC-2998 colon it was greater than 25000 nM; in the test on KM12 colon, greater than 25000 nM; in the test on MCF7 breast it was greater than 25000 nM; in the test on NCI-H522 lung, 24800 nM; with OVCAR-8 ovarian, greater than 25000 nM. Moreover, the TGI in the test on RPMI-8226 leukemia, in the test with SK-OV-3 ovarian, in the test on T-47D breast and in the test on UO-31 renal was greater than 25000 nM in each case.
`CN1CCN(c2ccc(C(=O)Nc3cccc(C#Cc4cccc5[nH]nc(N)c45)c3)cc2C(F)(F)F)CC1`: the GI50 in the test on COLO 205 colon is 581 nM; with HCC-2998 colon, 658 nM; in the test on KM12 colon, 808 nM; in the test on MCF7 breast, 582 nM; with NCI-H522 lung, 566 nM; with OVCAR-8 ovarian, 1090 nM. Besides, the GI50 is 1450 nM with RPMI-8226 leukemia, 1620 nM with SK-OV-3 ovarian, 1240 nM with T-47D breast and 713 nM in the test with UO-31 renal. The TGI amounted to 1200 nM in the test with COLO 205 colon; 1310 nM in the test with HCC-2998 colon; 1950 nM in the test with KM12 colon; 1140 nM in the test with MCF7 breast; 1300 nM in the test on NCI-H522 lung; 4770 nM with OVCAR-8 ovarian. The TGI with RPMI-8226 leukemia worked out at 4060 nM; with SK-OV-3 ovarian it was 5340 nM; with T-47D breast, 5550 nM; in the test on UO-31 renal, 1800 nM.
Regarding `CN(C)c1ccc(C(=C2C=CC(=[N+](C)C)C=C2)c2ccccc2Cl)cc1`, the GI50 in the test with COLO 205 colon was 170 nM; in the test with HCC-2998 colon it was 354 nM; in the test with KM12 colon, 283 nM; with MCF7 breast it was 237 nM; with NCI-H522 lung, 268 nM; with OVCAR-8 ovarian it was 306 nM. Besides, the GI50 in the test with RPMI-8226 leukemia was 184 nM; in the test on SK-OV-3 ovarian, 314 nM; with T-47D breast, 188 nM; in the test with UO-31 renal, 762 nM. Further, the TGI is 312 nM in the test with COLO 205 colon; 1280 nM in the test on HCC-2998 colon; 929 nM with KM12 colon; 899 nM in the test with MCF7 breast; 925 nM in the test with NCI-H522 lung; 1660 nM in the test on OVCAR-8 ovarian. Also, the TGI with RPMI-8226 leukemia is 893 nM; in the test on SK-OV-3 ovarian, 992 nM; in the test with T-47D breast, 901 nM; with UO-31 renal, 6490 nM.
For `COc1ccc(/C(=N/O)c2cc(OC)c(OC)c(OC)c2)c(OC)c1N`, the GI50 was 3000 nM with COLO 205 colon; 4290 nM with HCC-2998 colon; 3270 nM in the test on KM12 colon; 3260 nM in the test on MCF7 breast; 4020 nM with NCI-H522 lung; 9870 nM in the test with OVCAR-8 ovarian. Further, the GI50 with RPMI-8226 leukemia was 5350 nM; with SK-OV-3 ovarian, 8510 nM; with T-47D breast, 26200 nM; in the test with UO-31 renal it was 5450 nM. Also, the TGI in the test with COLO 205 colon was 13500 nM; in the test with HCC-2998 colon it was greater than 100000 nM; in the test with KM12 colon, greater than 100000 nM; in the test with MCF7 breast, greater than 100000 nM; in the test with NCI-H522 lung, greater than 100000 nM; in the test on OVCAR-8 ovarian, greater than 100000 nM. In addition, the TGI in the test with RPMI-8226 leukemia, in the test with SK-OV-3 ovarian, in the test on T-47D breast and with UO-31 renal was greater than 100000 nM in each case.
For `CCCC#CCOC(=O)c1cc([N+](=O)[O-])cc([N+](=O)[O-])c1`, the TGI in the test on COLO 205 colon, in the test with HCC-2998 colon, with KM12 colon, in the test with MCF7 breast, with NCI-H522 lung and in the test with OVCAR-8 ovarian was greater than 100000 nM throughout. Besides, the TGI with RPMI-8226 leukemia, in the test with SK-OV-3 ovarian, in the test with T-47D breast and in the test with UO-31 renal was greater than 100000 nM each time.
For the compound `Cc1ccc(C)c2c(N=Nc3ccccc3[N+](=O)[O-])c(O)[nH]c12`, the TGI in the test on COLO 205 colon, in the test on HCC-2998 colon, with KM12 colon, in the test on MCF7 breast, with NCI-H522 lung and in the test with RPMI-8226 leukemia was greater than 100000 nM each time. The TGI with SK-OV-3 ovarian, in the test on T-47D breast and in the test on UO-31 renal was greater than 100000 nM each time.
Regarding `O=C1N[C@H]2[C@H](O)[C@H](O)[C@@H](O)[C@H](O)[C@@H]2c2cc3c(c(O)c21)OCO3`, the GI50 was 12800 nM with COLO 205 colon; 61.8 nM in the test with HCC-2998 colon; 234 nM in the test on KM12 colon; 20.8 nM in the test with MCF7 breast; 143 nM with NCI-H522 lung; 231 nM and 225 nM in the test on OVCAR-8 ovarian. Also, the GI50 in the test with RPMI-8226 leukemia is 224 nM and 842 nM; in the test with SK-OV-3 ovarian, 300 nM and 330 nM; with UO-31 renal it was 333 nM and 522 nM. The TGI with HCC-2998 colon is 279 nM and 148 nM; in the test on KM12 colon it was 2800 nM and 410 nM; with NCI-H522 lung, 886 nM and 141 nM; with OVCAR-8 ovarian it was 1890 nM and 195 nM; in the test on T-47D breast it was 155 nM; in the test with UO-31 renal it was 2780 nM and 398 nM.
